Tests used:
[1] = tested on: UV-induced CUL4-dependent DDB2 degradation in MEF-F-DDB2 cells; experiment: Cell-based assay for inhibition of UV-induced CUL4-dependent DDB2 degradation; design: key: (+) means that the normalized DDB2/α-tubulin ratio is higher in the compound treated sample than DMSO treated sample; (−) means that no change happens between compound treated sample with control sample; conditions: DDB2/α-tubulin by Western blot
Method: Cell-based assay for inhibition of UV-induced CUL4-dependent DDB2 degradation by small molecule CUL4 inhibitors (see Table 1, column 5). Briefly, MEF-F-DDB2 cells were seeded in 6-well plates. DMSO or indicated concentrations of compounds were added to MEF-F-DDB2 cells growing in serum-free medium. MEF-F-DDB2 cells were washed once with PBS and subsequently irradiated with a Philips TUV lamp (predominantly 254 nm) at a dose rate of 0.2 W/m^2. DMSO or compounds were added to MEF-F-DDB2 cells, and then cells were harvested. The cells were lysed, and equal amounts of proteins were resolved on SDS-PAGE gel and Flag-DDB2 levels were detected using anti-DDB2 (D4C4) rabbit antibody (Cell signaling, #5416S). α-tubulin (Proteintech, #66031-1-Ig) was used as an internal loading control. (+) means that the normalized DDB2/α-tubulin ratio is higher in the compound treated sample than DMSO treated sample. (−) means that no change happens between compound treated sample with control sample.

[2] = tested on: CUL4A^high MDA-MB-468 breast cancer cells; experiment: Cell killing in CUL4-high MDA-MB-468 cells (CellTiter Glo); type: cell-based; conditions: Homo sapiens, 192 h; MDA-MB-468 cells, 8 days treatment; read-out: EC50 CUL4-High Cells (cell killing)
Method: EC50 refers to concentration of compound that induces 50% killing of CUL4A^high MDA-MB-468 cells (see Table 1, column 6). CUL4A^high MDA-MB-468 breast cancer cells were seeded in 96 well plates. After 24 hours, cells were treated with DMSO or compounds. Change fresh medium and compounds. After 8 days treatment, cell viability was examined by using CellTiter Glo kit (Promega #7570) following the manufacturer's guidelines (https://www.promega.com/-/media/files/resources/protocols/technicalbulletins/0/celltiter-glo-luminescent-cell-viability-assay protocol.pdf?rev=0d95c232094b41daa06d0c110d1d916f&sc_lang=en, hereby incorporated by reference in its entirety for all purposes). EC50 concentration was calculated by Prism 8 XY analysis nonlinear regression (curve fit-Log(inhibitor) vs response). Lower EC50 indicates high cell killing potential in CUL4^high MDA-MB-468 cells.
CUL4A^high MDA-MB-468, CUL4^low (T47D), and MCF7 breast cancer cells were seeded in 96 well plates separately. Cells were treated with DMSO, or from 0 to 20 μM compound respectively. Replace with fresh medium and compounds every 48 hours. After 8 days treatment, cell viability was examined by CellTiter Glo kit (Promega #7570). First, transfer the appropriate volume (10 ml for Cat. #G7570) of CellTiter-Glo® Buffer into the amber bottle containing CellTiter-Glo® Substrate to reconstitute the lyophilized enzyme/substrate mixture. This forms the CellTiter-Glo® Reagent. Second, add CellTiter-Glo® Reagent in an equal volume (100 μl per well for 96-well plates) to all wells. Mix contents for 2 minutes on an orbital shaker to induce cell lysis. Incubate at room temperature for 15 minutes to stabilize luminescent signal. Then record luminescence. EC50 concentration was calculated by Prism 8 XY analysis nonlinear regression (curve fit-Log(inhibitor) vs response).

[3] = target: CUL4A-DDB1-BPB interaction (Homo sapiens (Human), UniProt Q16531); experiment: AlphaLISA in vitro binding assay, CUL4A and DDB1-BPB binding; conditions: inhibition of CUL4A and DDB1-BPB binding
Sequence of CUL4A-DDB1-BPB interaction (Q16531 403-706): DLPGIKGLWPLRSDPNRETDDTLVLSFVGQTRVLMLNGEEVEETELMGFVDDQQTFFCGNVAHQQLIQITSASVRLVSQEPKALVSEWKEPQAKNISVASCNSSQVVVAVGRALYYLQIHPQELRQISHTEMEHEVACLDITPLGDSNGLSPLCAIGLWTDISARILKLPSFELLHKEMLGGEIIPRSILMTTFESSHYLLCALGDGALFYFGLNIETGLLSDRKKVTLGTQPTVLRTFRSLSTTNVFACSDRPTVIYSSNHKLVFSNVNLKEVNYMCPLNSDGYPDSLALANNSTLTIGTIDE
Description: AlphaLISA IC50 (see Table 1, column 4) means the half maximal inhibitory concentration of compound that inhibits CUL4A and DDB1-BPB binding. Our lab established and optimized 384 well-based AlphaLISA in vitro binding assay for testing small molecule inhibitory activity. Small molecule libraries were screened for compounds that disrupt CUL4A-DDB1-BPB interaction using AlphaScreen detection beads (PerkinElmer, #AL112C and #6765300) following the manufacturer's protocol (https://www.perkinelmer.com/PDFs/downloads/GDE-Alphatech.pdf, hereby incorporated by reference in its entirety for all purposes). The 384-well assay plates (Greiner Bio-one, #781075) were read in Synergy Neo2 Hybrid Multi-Mode Reader (BioTek). The IC50 was calculated by Prism 8 XY analysis nonlinear regression (curve fit-Log(inhibitor) vs response).

[4] = Dynamic light scattering (DLS) solubility assay; type: physicochemical; conditions: normalized intensity ratio of 25 μM compound vs DMSO, in PBS
Method: Dynamic light scattering (DLS) (see Table 1, column 3) is a tool for studying the diffusion behavior of macromolecules in solution. To profile compound solubility, DLS assay was developed for measuring aggregation of small molecule compounds. Compound stock solution was prepared in DMSO. Dilution series were made for each compound in DMSO to ensure a final 1× assay concentration range of 200 μM to 0.78 μM. For example, if the final DMSO concentration was 1%, compounds were prepared at 100× concentrations ranging from […] to 78 μM. Dilute compounds in PBS solution to final concentration. Place 60 μl/well in 96 well plates and 3 replicates for each sample. Data were collected using a DynaPro Plate Reader III (WYATT Technologies, Inc., USA). The instrument was adjusted to measure the optimal light scattering intensity according to the manufacturer's instructions. […] The ratio over 2 means (−) insoluble. The ratio below 2 means (+) soluble and around 2 means (+/−).

Row | IC50 [3] [µM] | Solubility (DLS Assay) [4] | AlphaLisa IC50 [3] | Structure (SMILES) | Degradation Inhibition (inhibition of UV-induced DDB2 degradation) [1] | EC50 [2] [µM]
1 |  |  |  | O=C(O)c1cc2c([nH]c3cc(F)ccc32)c(-c2ccc(OCCCc3ccccc3)cc2)n1 [PA1-11C, 7-fluoro-1-(4-(3-phenylpropoxy)phenyl)-9H-pyrido[3,4-b]indole-3-carboxylic acid] | − | 7.31
2 | 0.38 |  |  | CN1CCN(c2ccc(S(=O)(=O)N(C)c3ccc(-c4nc(C(=O)O)cc5c4[nH]c4cc(F)ccc45)cc3)cc2)CC1 [PA1-13A-7, 7-fluoro-1-(4-((N-methyl-4-(4-methylpiperazin-1-yl)phenyl)sulfonamido)phenyl)-9H-pyrido[3,4-b]indole-3-carboxylic acid] | − | 14.5
3 | 7.75 ± 1.82 | -(insoluble) |  | COc1cccc(-c2nc(C(=O)O)cc3c2[nH]c2ccccc23)c1 [PA8] |  | 
4 |  |  |  | O=C(O)c1cc2c([nH]c3cc(F)ccc32)c(-c2ccc(OCc3ccsc3)cc2)n1 [PA1-11I, 7-fluoro-1-(4-(thiophen-3-ylmethoxy)phenyl)-9H-pyrido[3,4-b]indole-3-carboxylic acid] | − | 14
5 | 0.139 |  |  | Cc1cc(F)cc2[nH]c3c(-c4ccc(N(C)S(=O)(=O)c5ccccc5)cc4)nc(C(=O)O)cc3c12 [PA1-14, 7-fluoro-5-methyl-1-(4-(N-methylphenylsulfonamido)phenyl)-9H-pyrido[3,4-b]indole-3-carboxylic acid] |  | 7.36
6 |  |  |  | O=C(O)c1cc2c([nH]c3cc(F)ccc32)c(-c2ccc(Oc3ccccc3)cc2)n1 [PA1-11A, 7-fluoro-1-(4-phenoxyphenyl)-9H-pyrido[3,4-b]indole-3-carboxylic acid] | − | 15.7
7 |  |  |  | O=C(O)c1cc2c([nH]c3cc(F)ccc32)c(-c2ccc(OCc3cscn3)cc2)n1 [PA1-11K, 7-fluoro-1-(4-(thiazol-4-ylmethoxy)phenyl)-9H-pyrido[3,4-b]indole-3-carboxylic acid] | − | > 20
8 | 12 |  |  | COC(=O)c1cccc(-c2nc(C(=O)O)cc3c2[nH]c2ccccc23)c1 [PA24, 1-(3-methoxycarbonylphenyl)-9HPage pyrido[3,4-b]indole-3-carboxylic acid] | + | 
9 | 2.4 |  |  | Cc1cc(N(C)S(=O)(=O)c2ccccc2)ccc1-c1nc(C(=O)O)cc2c1[nH]c1cc(F)ccc12 [PA1-12A, 7-fluoro-1-(2-methyl-4-(N-methylphenylsulfonamido)phenyl)-9H-pyrido[3,4-b]indole-3-carboxylic acid] | − | 9.84
10 |  |  |  | O=C(O)c1cc2c([nH]c3cc(F)ccc32)c(-c2ccc(OCn3cncn3)cc2)n1 [PA1-11M, 1-(4-((1H-1,2,4-triazol-1-yl)methoxy)phenyl)-7-fluoro-9H-pyrido[3,4-b]indole-3-carboxylic acid] | − | 
11 | 2.51 |  |  | CN(c1ccc(-c2nc(C(=O)O)cc3c2[nH]c2cc(F)ccc23)cc1)S(=O)(=O)c1ccc(C#N)cc1 [PA1-13A-2, 1-(4-((4-cyano-N-methylphenyl)sulfonamido)phenyl)-7-fluoro-9H-pyrido[3,4-b]indole-3-carboxylic acid] | − | 3.54
12 |  |  |  | O=C(O)c1cc2c([nH]c3cc(F)ccc32)c(-c2ccc(OCc3ccncn3)cc2)n1 [PA1-11L, 7-fluoro-1-(4-(pyrimidin-4-ylmethoxy)phenyl)-9H-pyrido[3,4-b]indole-3-carboxylic acid] | − | 
13 |  |  | Neg | COC(=O)c1cc2c([nH]c3cc(F)ccc32)c(-c2ccc(N(C)S(=O)(=O)c3ccc(C#N)cc3)cc2)n1 [PA1-13A-2 ESTER] | + | > 20
14 | 2.52 ± 0.54 |  |  | O=C(O)c1cc2c([nH]c3ccccc32)c(-c2cccnc2)n1 [PA25] | + | 
15 |  |  |  | O=C(O)c1cc2c([nH]c3cc(F)ccc32)c(-c2ccc(OCc3cccnc3)cc2)n1 [PA1-11G, 7-fluoro-1-(4-(pyridin-3-ylmethoxy)phenyl)-9H-pyrido[3,4-b]indole-3-carboxylic acid] | − | > 20
16 |  |  |  | O=C(O)c1cc2c([nH]c3cc(F)ccc32)c(-c2ccc(OCCc3ccccc3)cc2)n1 [PA1-11B, 7-fluoro-1-(4-phenethoxyphenyl)-9H-pyrido[3,4-b]indole-3-carboxylic acid] | − | 15.2
17 | 17.5 ± 6.39 |  |  | COc1ccc(-c2ccc(-c3nc(C(=O)O)cc4c3[nH]c3ccccc34)cc2)cc1 [PA60] | − | 
18 | 0.22 |  |  | CN(c1ccc(-c2nc(C(=O)O)cc3c2[nH]c2cc(F)cc(F)c23)cc1)S(=O)(=O)c1ccccc1 [PA1-5, 5,7-difluoro-1-(4-(N-methylphenylsulfonamido)phenyl)-9H-pyrido[3,4-b]indole-3-carboxylic acid] |  | 10.7
19 | 1.13 |  |  | CN(c1ccc(-c2nc(C(=O)O)cc3c2[nH]c2cc(Cl)ccc23)cc1)S(=O)(=O)c1ccccc1 [PA1-6, 1-[4-[benzenesulfonyl(methyl)amino]phenyl]-7-chloro-9H-pyrido[3,4-b]indole-3-carboxylic acid] |  | 7.89
20 |  |  |  | O=C(O)c1cc2c([nH]c3cc(F)ccc32)c(-c2ccc(OCC3CCOCC3)cc2)n1 [PA1-11E, 7-fluoro-1-(4-((tetrahydro-2H-pyran-4-yl)methoxy)phenyl)-9H-pyrido[3,4-b]indole-3-carboxylic acid] | − | > 20
21 |  |  |  | O=C(O)c1cc2c([nH]c3cc(F)ccc32)c(-c2ccc(OCC3CCCCC3)cc2)n1 [PA1-11D, 1-(4-(cyclohexylmethoxy)phenyl)-7-fluoro-9H-pyrido[3,4-b]indole-3-carboxylic acid] | − | 9.51
22 |  |  |  | O=C(O)c1cc2c([nH]c3cc(F)ccc32)c(-c2ccc(OCc3ccoc3)cc2)n1 [PA1-11J, 7-fluoro-1-(4-(furan-3-ylmethoxy)phenyl)-9H-pyrido[3,4-b]indole-3-carboxylic acid] | − | 
23 |  |  |  | O=C(O)c1cc2c([nH]c3cc(F)ccc32)c(-c2ccc(OCc3ccncc3)cc2)n1 [PA1-11F, 7-fluoro-1-(4-(pyridin-4-ylmethoxy)phenyl)-9H-pyrido[3,4-b]indole-3-carboxylic acid] | − | > 20

— patent US20250188078A1, “SMALL MOLECULE INHIBITORS OF THE CRL4 UBIQUITIN LIGASE” (Cornell University, priority 2022, published 2025)
